Assays:
Experiment in all cases: relative viability (nuclei count vs DMSO), 5 days (fraction); higher = more cells survive
Venetoclax + Lapatinib = compound: CC1(C)CCC(CN2CCN(c3ccc(C(=O)NS(=O)(=O)c4ccc(NCC5CCOCC5)c([N+](=O)[O-])c4)c(Oc4cnc5[nH]ccc5c4)c3)CC2)=C(c2ccc(Cl)cc2)C1 [Venetoclax] + CS(=O)(=O)CCNCc1ccc(-c2ccc3ncnc(Nc4ccc(OCc5cccc(F)c5)c(Cl)c4)c3c2)o1 [Lapatinib] (partner 2 µM)
Procedure, shortened: (§1)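 Cells from lung cancer lines were seeded into 1536-well plates and, one day later, dosed by pin tool. Treatments were either a single drug or a fixed dose of an anchor drug with five library-drug doses (not always all listed) in √10 steps. After 5 days, nuclei were stained in a one-step fixation (final 0.05% Triton X-100, 1% formaldehyde, 1 ug/ml Hoechst) and counted on 4× images, and relative viability is the treated-to-vehicle nuclei ratio, as the median of duplicate plates.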

Selumetinib + Crizotinib = compound: Cn1cnc2c(F)c(Nc3ccc(Br)cc3Cl)c(C(=O)NOCCO)cc21 [Selumetinib] + C[C@@H](Oc1cc(-c2cnn(C3CCNCC3)c2)cnc1N)c1c(Cl)ccc(F)c1Cl [Crizotinib] (partner 1 µM)
Procedure, shortened: as §1

Selumetinib + Olaparib = compound: Cn1cnc2c(F)c(Nc3ccc(Br)cc3Cl)c(C(=O)NOCCO)cc21 [Selumetinib] + O=C(c1cc(Cc2n[nH]c(=O)c3ccccc23)ccc1F)N1CCN(C(=O)C2CC2)CC1 [Olaparib] (partner 8 µM)
Procedure, shortened: as §1

Venetoclax + Dasatinib = compound: CC1(C)CCC(CN2CCN(c3ccc(C(=O)NS(=O)(=O)c4ccc(NCC5CCOCC5)c([N+](=O)[O-])c4)c(Oc4cnc5[nH]ccc5c4)c3)CC2)=C(c2ccc(Cl)cc2)C1 [Venetoclax] + Cc1nc(Nc2ncc(C(=O)Nc3c(C)cccc3Cl)s2)cc(N2CCN(CCO)CC2)n1 [Dasatinib] (partner 0.075 µM)
Procedure, shortened: as §1

Row | Cell Line | relative viability (Venetoclax + Lapatinib; first compound 0.01 µM) | relative viability (Venetoclax + Lapatinib; first compound 0.03162 µM) | relative viability (Venetoclax + Lapatinib; first compound 0.3162 µM) | relative viability (Venetoclax + Lapatinib; first compound 1 µM) | relative viability (Selumetinib + Crizotinib; first compound 0.02 µM) | relative viability (Selumetinib + Crizotinib; first compound 0.06325 µM) | relative viability (Selumetinib + Crizotinib; first compound 0.2 µM) | relative viability (Selumetinib + Crizotinib; first compound 0.6325 µM) | relative viability (Selumetinib + Olaparib; first compound 0.02 µM) | relative viability (Selumetinib + Olaparib; first compound 0.06325 µM) | relative viability (Selumetinib + Olaparib; first compound 0.2 µM) | relative viability (Selumetinib + Olaparib; first compound 0.6325 µM) | relative viability (Venetoclax + Dasatinib; first compound 0.01 µM) | relative viability (Venetoclax + Dasatinib; first compound 0.03162 µM) | relative viability (Venetoclax + Dasatinib; first compound 0.1 µM) | relative viability (Venetoclax + Dasatinib; first compound 0.3162 µM) | relative viability (Venetoclax + Dasatinib; first compound 1 µM) | relative viability (Venetoclax + Lapatinib; first compound 0.1 µM)
1 | NCI-H650 | 0.726 | 0.86 | 0.963 | 0.882 | 0.793 | 0.593 | 0.575 | 0.67 | 0.478 | 0.514 | 0.47 | 0.526 | 0.488 | 0.539 | 0.453 | 0.484 | 0.432 | –
2 | A-427 | 0.911 | 1.02 | 1.1 | 1.13 | 0.88 | 0.768 | 0.73 | 0.701 | 0.724 | 0.771 | 0.802 | 0.845 | 0.667 | 0.726 | 0.667 | 0.687 | 0.639 | 1.05
3 | EMC-BAC-2 | 0.88 | 0.878 | 0.847 | 0.827 | 0.754 | 0.719 | 0.778 | 0.834 | 0.636 | 0.657 | 0.674 | 0.717 | 0.331 | 0.343 | 0.292 | 0.327 | 0.31 | 0.731
4 | NCI-H520 | 0.86 | 0.979 | 0.903 | 0.732 | 0.791 | 0.766 | 0.764 | 0.809 | 0.331 | 0.349 | 0.363 | 0.3 | 0.218 | 0.193 | 0.158 | 0.178 | 0.195 | 0.76
5 | NCI-H1563 | 0.691 | 1.08 | 1.28 | 0.953 | 0.858 | 0.825 | 0.865 | 0.781 | – | – | – | – | 0.531 | 0.516 | 0.445 | 0.442 | 0.461 | 1.14
6 | NCI-H1703 | 0.992 | 1.11 | 1.01 | 1.03 | 0.664 | 0.653 | 0.647 | 0.616 | 0.521 | 0.411 | 0.39 | 0.605 | – | – | – | – | – | 0.895
7 | LCLC-103H | – | – | – | – | 1.02 | 0.846 | 0.857 | 0.948 | 0.656 | 0.703 | 0.66 | 0.663 | 0.48 | 0.439 | 0.479 | 0.463 | 0.45 | –
8 | Calu-6 | 1.08 | 1.13 | 1 | 0.97 | 0.804 | 0.603 | 0.51 | 0.343 | 0.62 | 0.489 | 0.421 | 0.362 | – | – | – | – | – | 0.94
9 | HCC-44 | 0.981 | 0.979 | 1.08 | 0.973 | 0.883 | 0.753 | 0.876 | 0.876 | 0.988 | 0.997 | 0.983 | 1.01 | – | – | – | – | – | 0.997
10 | NCI-H1299 | 0.993 | 0.96 | 0.959 | 0.909 | 1.06 | 0.961 | 0.939 | 0.84 | 1.08 | 1.08 | 1.11 | 0.932 | – | – | – | – | – | 0.976
11 | NCI-H441 | – | – | – | – | 0.724 | 0.858 | 0.78 | 0.556 | 0.613 | 0.609 | 0.517 | 0.444 | 0.685 | 0.667 | 0.482 | 0.546 | 0.596 | –
12 | EBC-1 | 0.213 | 0.187 | 0.206 | 0.224 | 0.179 | 0.16 | 0.175 | 0.147 | 0.717 | 0.66 | 0.599 | 0.443 | – | – | – | – | – | 0.234
13 | NCI-H1623 | – | – | – | – | – | – | – | – | – | – | – | – | 0.565 | 0.595 | 0.534 | 0.515 | 0.508 | –
14 | NCI-H2342 | – | – | – | – | – | – | – | – | 0.403 | 0.4 | 0.43 | 0.415 | 0.436 | 0.341 | 0.325 | 0.288 | 0.331 | –
15 | SW 900 | – | – | – | – | – | – | – | – | 0.96 | 0.798 | 0.788 | 0.843 | 0.544 | 0.625 | 0.645 | 0.855 | 0.434 | –
16 | NCI-H1793 | 0.677 | 0.758 | 0.613 | 0.551 | – | – | – | – | 0.765 | 0.531 | 0.421 | 0.39 | 0.448 | 0.355 | 0.291 | 0.358 | 0.27 | 0.443
17 | IA-LM | 0.849 | 0.723 | 0.897 | 0.552 | 0.662 | 0.54 | 0.314 | 0.335 | 1.09 | 0.531 | 0.587 | 0.482 | – | – | – | – | – | 0.646
18 | NCI-H1395 | 1.37 | 1.09 | 1.09 | 0.964 | – | – | – | – | 0.452 | 0.488 | 0.482 | 0.46 | 0.449 | 0.406 | 0.392 | 0.442 | 0.409 | 0.958
19 | NCI-H522 | – | – | – | – | – | – | – | – | 0.676 | 0.74 | 0.542 | 0.581 | 0.938 | 0.951 | 0.805 | 0.8 | 0.848 | –
20 | A549 | 1.05 | 0.988 | 0.998 | 0.898 | 0.715 | 0.656 | 0.495 | 0.402 | 0.284 | 0.295 | 0.325 | 0.265 | – | – | – | – | – | 1.04
21 | NCI-H1648 | – | – | – | – | – | – | – | – | – | 0.914 | 0.742 | 0.493 | – | – | – | – | – | –
22 | ChaGo-K-1 | – | – | – | – | 1.12 | 1.18 | 1.11 | 1.17 | 0.43 | 0.414 | 0.398 | 0.39 | 0.722 | 0.601 | 0.59 | 0.598 | 0.547 | –

— the supplement of paper PMC10307832
